Values of other authors as cited in patent US8552051B2 (H. L. Hall & Sons Limited, priority 2009, dated 2013).

Legend:
PDE4 = conditions: Napoletano, M. et al. 2001
5-HT uptake = 5-HT uptake (Homo sapiens, UniProt P31645); conditions: U.S. Pat. No. 6,288,104
Sequence of 5-HT uptake (P31645 whole entry): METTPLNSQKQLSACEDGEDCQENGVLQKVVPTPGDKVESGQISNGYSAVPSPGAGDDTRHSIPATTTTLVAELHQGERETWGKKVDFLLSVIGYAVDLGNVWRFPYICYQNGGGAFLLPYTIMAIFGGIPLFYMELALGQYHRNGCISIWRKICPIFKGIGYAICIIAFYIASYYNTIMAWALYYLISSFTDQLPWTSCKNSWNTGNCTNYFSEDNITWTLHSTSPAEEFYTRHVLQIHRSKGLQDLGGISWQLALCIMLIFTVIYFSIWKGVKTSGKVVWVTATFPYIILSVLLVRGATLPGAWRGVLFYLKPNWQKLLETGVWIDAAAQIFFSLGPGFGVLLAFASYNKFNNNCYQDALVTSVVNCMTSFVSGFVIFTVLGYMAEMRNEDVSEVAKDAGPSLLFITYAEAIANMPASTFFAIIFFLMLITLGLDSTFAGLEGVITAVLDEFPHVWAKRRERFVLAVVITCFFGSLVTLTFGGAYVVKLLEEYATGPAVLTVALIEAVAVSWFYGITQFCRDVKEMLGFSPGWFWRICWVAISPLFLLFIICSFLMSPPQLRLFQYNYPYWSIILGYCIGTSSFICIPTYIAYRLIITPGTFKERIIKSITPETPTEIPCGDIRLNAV

Structure (SMILES)	PDE4 inhibition, result in words (PDE4)	5-HT uptake inhibitory activity, result in words (5-HT uptake)
COc1ccc(C23CCC(=O)CC2N(C)CC3)cc1OC.Cl (centres unmarked) [Mesembrine hydrochloride]	weak PDE4 inhibitor	
COc1ccc(C23C=CC(O)CC2N(C)CC3)cc1OC (centres unmarked) [mesembrenol]		potent 5-HT uptake inhibitory activity
